Source: patent US20050112573A1, “Method of detecting toxic substance” (priority 2001, published 2005)

System: yeast genes (level of expressed mRNA)
Assay: DNA chip analysis of expressed mRNA of yeast genes after 2 h culture with a toxic chemical substance
Assay type: cell-based, Saccharomyces cerevisiae S288C
Protocol: Yeast (Saccharomyces cerevtisiae S288C (α SUC2mal mel gap2 CUP1)) were cultured at 25° C. on YPD medium (yeast extract 1%, polypepton 2%, glucose 2%). One of toxic chemical substances was added to the cell at logarithmic growth phase, and the cell was further cultured for two hours. Cell was cultured without any chemical substance in the same condition, and was used as control. Concentrations of the chemical substances were defined to inhibit the growth of the yeast but not lead to death.
After the completion of cultivation, the culture was centrifuged to collect the cells. To the cells, sodium acetate buffer (50 mM sodium acetate, 10 mM EDTA, 1% SDS) was added, and the mixture was shaken at 65° C. for five minutes, followed by returning to room temperature, and obtaining the supernatant, which procedure was repeated two times. To the supernatant, ½ amount of a solution of phenol/chloroform was added, and the mixture was centrifuged to give a supernatant, which was added with an equal amount of chloroform, and the mixture was centrifuged to give a supernatant. To the supernatant, an equal amount of isopropanol containing 0.3 M sodium acetate was added, and the mixture was allowed to stand at room temperature for 30 minutes, after which the mixture was centrifuged to give a sediment of the whole RNAs. Seventy % ethanol was added to the sediment, and the mixture was again centrifuged to give a sediment, which was then dried and dissolved in water. mRNA was isolated from the whole RNAs as followings. In view of the fact that a poly A chain is attached to the 3′ terminus of mRNA, a polynucleotide having a poly T structure which was immobilized on the surface of latex beads was used to trap the mRNA, and then the mRNA was washed and eluted with spine column (Oligotex-dT30<Super>mRNA Purification Kit, Takara). Reverse transcription of the mRNA was conducted with a reverse transcriptase (Super Script II Reverse Transcriptase; catalogue No. 18064-014, GibcoBRL) using fluorescence-labeled nucleotides to give cDNAs that were introduced with Cy3-dUTP or Cy5-dUTP during the reverse transcription.
The labeled cDNAs were dissolved in TE buffer (10 mM Tris-HCl/1 mM EDTA, pH8.0), and the solution was dropped on the DNA chip containing the whole genes of yeast (DNA Chip Research Inc. Japan) so that the cDNAs were hybridized on the DNA chip at 65° C. for over 12 hours. The fluoresces intensity of the DNA chip was read with a scanner, and the ratio relative to the fluorescence intensity resulting from the absence of chemical substance was estimated as the following, which is shown in Tables 1 to 9: [formula]
In the Tables, “Intensity” indicated in the rightmost column is a value of the level of expressed mRNA of each gene in control cells as divided by the average level of the expressions of the whole genes.

In the case of CdCl2 [(2)], the “The level of expressed mRNA in the presence of chemical substance/” value (yeast gene YNL074C, ratio to control without chemical substance, 2 h culture) is reported as 1.3, the “The level of expressed mRNA in the presence of chemical substance/” value (yeast gene YNL092W, ratio to control without chemical substance, 2 h culture) is reported as 1.4 and the “The level of expressed mRNA in the presence of chemical substance/The level of expressed mRNA in the absence of chemical substance” value (yeast gene YNL093W) is reported as 6.4. The “The level of expressed mRNA in the presence of chemical substance/” value (yeast gene YNL115C, ratio to control without chemical substance, 2 h culture) was 1.8, the “The level of expressed mRNA in the presence of chemical substance/” value (yeast gene YNL156C, ratio to control without chemical substance, 2 h culture) was 1.2 and the “The level of expressed mRNA in the presence of chemical substance/” value (yeast gene YNL234W, ratio to control without chemical substance, 2 h culture) was 1.1. For the same substance, the “The level of expressed mRNA in the presence of chemical substance/” value (yeast gene YNL281W, ratio to control without chemical) was 1.3, the “The level of expressed mRNA in the presence of chemical substance/” value (yeast gene YNL305C, ratio to control without chemical) was 2.2 and the “The level of expressed mRNA in the presence of chemical substance/The level of expressed mRNA in the absence of chemical substance” value (yeast gene YNL333W) was 1.4. For the same substance, the “The level of expressed mRNA in the presence of chemical substance/The level of expressed mRNA in the absence of chemical substance” value (yeast gene YNR010W) was 1.2, the “The level of expressed mRNA in the presence of chemical substance/” value (yeast gene YNR068C, ratio to control without chemical) was 1.5 and the “The level of expressed mRNA in the presence of chemical substance/The level of expressed mRNA in the absence of chemical substance” value (yeast gene YNR069C) was 1.3. For the same substance, the “The level of expressed mRNA in the presence of chemical substance/in the absence of chemical substance” value (yeast gene YNR072W) was 1.5, the “The level of expressed mRNA in the presence of chemical substance/The level of expressed mRNA in the absence of chemical substance” value (yeast gene YOL013C) was 1.0 and the “The level of expressed mRNA in the presence of chemical substance/” value (yeast gene YOL032W, ratio to control without chemical) was 0.8. The “The level of expressed mRNA in the presence of chemical substance/” value (yeast gene YOL036W, ratio to control without chemical) was 0.9, the “The level of expressed mRNA in the presence of chemical substance/” value (yeast gene YOL047C, ratio to control without chemical) was 1.1 and the “The level of expressed mRNA in the presence of chemical substance/” value (yeast gene YOL071W, ratio to control without chemical) was 2.0. For the same substance, the “The level of expressed mRNA in the presence of chemical substance/” value (yeast gene YOL082W, ratio to control without chemical) was 1.6, the “The level of expressed mRNA in the presence of chemical substance/” value (yeast gene YOL083W, ratio to control without chemical) was 2.3 and the “The level of expressed mRNA in the presence of chemical substance/in the absence of chemical substance” value (yeast gene YOL096C) was 1.0. The “The level of expressed mRNA in the presence of chemical substance/” value (yeast gene YOL117W, ratio to control without chemical) was 1.1, the “The level of expressed mRNA in the presence of chemical substance/” value (yeast gene YOL131W, ratio to control without chemical) was 1.5 and the “The level of expressed mRNA in the presence of chemical substance/” value (yeast gene YOL150C, ratio to control without chemical substance, 2 h culture) was 3.7. For the same substance, the “The level of expressed mRNA in the presence of chemical substance/” value (yeast gene YOL162W, ratio to control without chemical) was 6.9, the “The level of expressed mRNA in the presence of chemical substance/The level of expressed mRNA in the absence of chemical substance” value (yeast gene YOL164W) was 4.4 and the “The level of expressed mRNA in the presence of chemical substance/” value (yeast gene YOR019W, ratio to control without chemical) was 1.2. For the same substance, the “The level of expressed mRNA in the presence of chemical substance/The level of expressed mRNA in the absence of chemical substance” value (yeast gene YOR036W) was 0.9, the “The level of expressed mRNA in the presence of chemical substance/The level of expressed mRNA in the absence of chemical substance” value (yeast gene YOR117W) was 1.3 and the “The level of expressed mRNA in the presence of chemical substance/The level of expressed mRNA in the absence of chemical substance” value (yeast gene YOR124C) was 1.1. The “The level of expressed mRNA in the presence of chemical substance/The level of expressed mRNA in the absence of chemical substance” value (yeast gene YOR132W) was 1.6, the “The level of expressed mRNA in the presence of chemical substance/The level of expressed mRNA in the absence of chemical substance” value (yeast gene YOR157C) was 1.3 and the “The level of expressed mRNA in the presence of chemical substance/in the absence of chemical substance” value (yeast gene YOR180C) was 1.1. For the same substance, the “The level of expressed mRNA in the presence of chemical substance/The level of expressed mRNA in the absence of chemical substance” value (yeast gene YOR181W) was 0.9, the “The level of expressed mRNA in the presence of chemical substance/The level of expressed mRNA in the absence of chemical substance” value (yeast gene YOR185C) was 1.3 and the “The level of expressed mRNA in the presence of chemical substance/” value (yeast gene YOR197W, ratio to control without chemical) was 1.0. For the same substance, the “The level of expressed mRNA in the presence of chemical substance/The level of expressed mRNA in the absence of chemical substance” value (yeast gene YOR198C) was 0.7, the “The level of expressed mRNA in the presence of chemical substance/The level of expressed mRNA in the absence of chemical substance” value (yeast gene YOR259C) was 1.1 and the “The level of expressed mRNA in the presence of chemical substance/The level of expressed mRNA in the absence of chemical substance” value (yeast gene YOR261C) was 1.4. For the same substance, the “The level of expressed mRNA in the presence of chemical substance/The level of expressed mRNA in the absence of chemical substance” value (yeast gene YOR288C) was 1.3, the “The level of expressed mRNA in the presence of chemical substance/The level of expressed mRNA in the absence of chemical substance” value (yeast gene YOR355W) was 0.6 and the “The level of expressed mRNA in the presence of chemical substance/in the absence of chemical substance” value (yeast gene YOR363C) was 2.0. The “The level of expressed mRNA in the presence of chemical substance/The level of expressed mRNA in the absence of chemical substance” value (yeast gene YOR383C) was 4.3, the “The level of expressed mRNA in the presence of chemical substance/” value (yeast gene YPL087W, ratio to control without chemical) was 5.1 and the “The level of expressed mRNA in the presence of chemical substance/The level of expressed mRNA in the absence of chemical substance” value (yeast gene YPL089C) was 1.0. For the same substance, the “The level of expressed mRNA in the presence of chemical substance/The level of expressed mRNA in the absence of chemical substance” value (yeast gene YPL109C) was 2.5, the “The level of expressed mRNA in the presence of chemical substance/The level of expressed mRNA in the absence of chemical substance” value (yeast gene YPL149W) was 1.5 and the “The level of expressed mRNA in the presence of chemical substance/The level of expressed mRNA in the absence of chemical substance” value (yeast gene YPL154C) was 3.3. For the same substance, the “The level of expressed mRNA in the presence of chemical substance/” value (yeast gene YPL196W, ratio to control without chemical) was 1.6, the “The level of expressed mRNA in the presence of chemical substance/” value (yeast gene YPL206C, ratio to control without chemical) was 2.9 and the “The level of expressed mRNA in the presence of chemical substance/” value (yeast gene YPL222W, ratio to control without chemical) was 3.5. The “The level of expressed mRNA in the presence of chemical substance/” value (yeast gene YPR023C, ratio to control without chemical) was 1.4, the “The level of expressed mRNA in the presence of chemical substance/The level of expressed mRNA in the absence of chemical substance” value (yeast gene YPR103W) was 1.1 and the “The level of expressed mRNA in the presence of chemical substance/The level of expressed mRNA in the absence of chemical substance” value (yeast gene YPR108W) was 1.0. For the same substance, the “The level of expressed mRNA in the presence of chemical substance/” value (yeast gene YPR151C, ratio to control without chemical) was 2.0 and the “The level of expressed mRNA in the presence of chemical substance/in the absence of chemical substance” value (yeast gene YPR184W) was 1.4.
